From ChEMBL document CHEMBL5537187, “Discovery of N-(1-(6-Oxo-1,6-dihydropyrimidine)-pyrazole) Acetamide Derivatives as Novel Noncovalent DprE1 Inhibitors against Mycobacterium tuberculosis” (J Med Chem, 2024)
Converted amounts (≈) assume the structure as drawn. The source made the active and inactive calls. No cut-off for these calls is given here.

What was measured:
[1] = system: Mycobacterium tuberculosis; assay: microbe, parasite or virus in culture; settings: H37Ra
Description: Antimycobacterial activity against autoluminescent Mycobacterium tuberculosis H37Ra assessed as inhibition of bacterial growth measured after 3 to 7 days by luminescence based analysis

in vitro = settings: human, HepG2 cells
Description: Cytotoxicity against human HepG2 cells assessed as reduction in cell viability

[2] = system: Mycolicibacterium smegmatis; assay: Antimycobacterial activity against Mycobacterium smegmatis […] assessed as inhibition of bacterial growth incubated for 48 hrs by spectrophotometer; assay type: functional
[3] = system: Mycobacterium tuberculosis; assay: Antimycobacterial activity against Mycobacterium tuberculosis assessed as inhibition of bacterial growth incubated for 24 hrs by alamar blue assay; assay type: functional
[4] = system: Mycobacterium tuberculosis; assay type: functional; settings: H37Ra
[5] = Antimicrobial activity against Akkermansia muciniphila assessed as inhibition of microbial growth upto 2 uM; assay type: toxicity
[6] = Antimicrobial activity against Clostridium tyrobutyricum assessed as inhibition of microbial growth upto 2 uM; assay type: toxicity
[7] = system: Mycolicibacterium smegmatis; assay: Synergistic antimycobacterial activity against Mycobacterium smegmatis assessed as inhibition of bacterial growth at 0.5 times MIC50 incubated for 7 days in presence of 0.5 times MIC50 of rifampicin by checkerboard assay; assay type: functional, organism-based; settings: time 7.0 day
[8] = Antimicrobial activity against Bifidobacterium pseudocatenulatum assessed as inhibition of microbial growth upto 2 uM; assay type: toxicity
[9] = Antimicrobial activity against Lactobacillus reuteri assessed as inhibition of microbial growth upto 2 uM; assay type: toxicity; settings: limosilactobacillus reuteri
[10] = Cytotoxicity against human Chang liver cells assessed as inhibition of cell growth; assay type: toxicity, cell-based
[11] = system: Mycolicibacterium smegmatis; assay: Synergistic antimycobacterial activity against Mycobacterium smegmatis assessed as inhibition of bacterial growth at 0.5 times MIC50 incubated for 7 days in presence of 0.5 times MIC50 of ethambutol by checkerboard assay; assay type: functional, organism-based; settings: time 7.0 day
[12] = system: Mycolicibacterium smegmatis; assay: Antimycobacterial activity against Mycobacterium smegmatis […] assessed as inhibition of bacterial growth at 10 uM incubated for 48 hrs by spectrophotometer relative to control; assay type: functional
[13] = target: T1, Decaprenylphosphoryl-beta-D-ribose oxidase (Mycobacterium tuberculosis (strain ATCC 25618 / H37Rv)) (UniProt P9WJF1); assay: Binding affinity to Mycobacterium tuberculosis DprE1 upto 166.7 microM by biolayer interferometry
T1 sequence (whole entry): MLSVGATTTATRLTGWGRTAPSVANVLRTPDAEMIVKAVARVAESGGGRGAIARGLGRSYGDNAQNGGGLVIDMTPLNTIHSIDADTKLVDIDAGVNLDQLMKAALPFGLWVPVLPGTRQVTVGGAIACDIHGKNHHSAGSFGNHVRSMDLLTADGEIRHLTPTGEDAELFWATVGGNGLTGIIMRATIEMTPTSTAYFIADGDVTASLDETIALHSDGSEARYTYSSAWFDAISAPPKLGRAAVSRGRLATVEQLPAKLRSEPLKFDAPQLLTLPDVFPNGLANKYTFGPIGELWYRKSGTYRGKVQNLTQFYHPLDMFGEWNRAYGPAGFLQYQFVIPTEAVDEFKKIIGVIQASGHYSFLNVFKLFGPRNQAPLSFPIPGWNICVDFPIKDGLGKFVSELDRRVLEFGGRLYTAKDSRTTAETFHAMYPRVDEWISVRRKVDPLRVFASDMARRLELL

[14] = target: T2, Decaprenylphosphoryl-beta-D-ribose oxidase (Mycobacterium tuberculosis (strain ATCC 25618 / H37Rv), UniProt P9WJF1)
T2 sequence (P9WJF1 whole entry): T1 sequence (whole entry)
Description: Binding affinity to Mycobacterium tuberculosis DprE1 assessed as dissociation constant by biolayer interferometry

SMILES	MIC90 [1]	IC50 (in vitro)	MIC [2]	other results
COc1ncnc(Cn2cc(C(=O)NCCO)c3ncc(C)cc32)c1C [TBA-7371]	12.5 µM (≈ 4.44 µg/mL)	165 µM	2.54 µM (≈ 0.903 µg/mL)	–
Cc1cccc(C(=O)Nc2cc(C)nn2-c2nc3cc(F)ccc3c(=O)[nH]2)c1	1.66 µM (≈ 0.626 µg/mL)	–	–	–
Cc1cc(NC(=O)c2cccc(C(F)(F)F)c2)n(-c2nc3ccccc3c(=O)[nH]2)n1	1.51 µM (≈ 0.624 µg/mL)	–	–	–
Cc1cccc(C(=O)Nc2cc(C)nn2-c2nc(C3CC3)cc(=O)[nH]2)c1	3.12 µM (≈ 1.09 µg/mL)	–	–	–
Cc1nc2ccc(NC(=O)c3cc([N+](=O)[O-])cc([N+](=O)[O-])c3Cl)cc2s1	–	86.1 µM	> 50 µM	–
CCc1cc(=O)[nH]c(-n2nc(C)cc2NC(=O)C2CCCC2)n1	6.25 µM (≈ 1.97 µg/mL)	–	–	–
Cc1cc(NC(=O)c2cccnc2)n(-c2nc3ccccc3c(=O)[nH]2)n1	1.81 µM (≈ 0.627 µg/mL)	–	–	–
CCOC(=O)C(=O)Nc1cc(C)nn1-c1nc(C)c(CC)c(=O)[nH]1	30.6 µM (≈ 10.2 µg/mL)	83.8 µM	30.6 µM (≈ 10.2 µg/mL)	–
Cc1cccc(C(=O)Nc2cc(C)nn2-c2nc3ccc(C)cc3c(=O)[nH]2)c1	0.84 µM (≈ 0.314 µg/mL)	–	–	–
CCc1cc(=O)[nH]c(-n2nc(C)cc2Nc2cccc([N+](=O)[O-])c2)n1	1.56 µM (≈ 0.531 µg/mL)	–	–	–
COc1ccc2nc(-n3nc(C)cc3NC(=O)c3cccc(C)c3)[nH]c(=O)c2c1	0.8 µM (≈ 0.312 µg/mL)	–	–	–
CCC(CC)C(=O)Nc1nnc(C2CC(=O)N(c3ccc(C)c(Cl)c3)C2)s1 (centres undefined)	–	43 µM	> 50 µM	–
CCc1cc(=O)[nH]c(-n2nc(C)cc2Nc2cccc(C)c2)n1	0.78 µM (≈ 0.241 µg/mL)	–	–	–
C=CCN1C(=O)NC(=O)/C(=C\NNC(=O)c2ccncc2)C1=O	–	–	–	MIC [3]: 9.75 µM (≈ 3.07 µg/mL)
O=C(Cc1ccccc1)NNC(=O)c1cc([N+](=O)[O-])cc([N+](=O)[O-])c1	–	–	–	MIC [4]: 1.25 µM (≈ 0.43 µg/mL)
Cc1cccc(C(=O)Nc2cc(C)nn2-c2nc3ccccc3c(=O)[nH]2)c1	1.56 µM (≈ 0.561 µg/mL)	> 100 µM	–	Activity [5]: Non-Toxic; Activity [6]: Non-Toxic; Activity [7]: Active; Activity [8]: Non-Toxic; Activity [9]: Non-Toxic; Activity [10]: Non-Toxic; Activity [11]: Active
CCc1ccc(N2CC(C(=O)Nc3ccccc3C(=O)Nc3nnc(CC)s3)CC2=O)cc1 (centres undefined)	–	165 µM	> 50 µM	–
Cc1cc(NC(=O)Cc2ccccc2)n(-c2nc3ccccc3c(=O)[nH]2)n1	7.22 µM (≈ 2.59 µg/mL)	–	–	–
Cc1cccc(C(=O)Nc2cc(C)nn2-c2nc3ccc(F)cc3c(=O)[nH]2)c1	0.83 µM (≈ 0.313 µg/mL)	–	–	–

SMILES	MIC90 [1]	IC50 (in vitro)	MIC [2]	other results
CCc1cc(=O)[nH]c(-n2nc(C)cc2NC(=O)c2cccc(C)c2)n1	1.56 µM (≈ 0.526 µg/mL)	–	–	–
CCc1c(C)nc(-n2nc(C)cc2NC(=O)C2CC(=O)N(c3ccc(C)cc3)C2)[nH]c1=O (centres undefined)	–	> 100 µM	29.8 µM (≈ 12.9 µg/mL)	inhibition at 10 µM [12]: 38%
Cc1cc(NC(=O)c2ccc3ccccc3c2)n(-c2nc3c(c(=O)[nH]2)CCC3)n1	–	144 µM	> 50 µM	–
CCc1cc(=O)[nH]c(-n2nc(C)cc2NC(=O)c2cccc([N+](=O)[O-])c2)n1	3.12 µM (≈ 1.15 µg/mL)	55.4 µM	0.86 µM (≈ 0.317 µg/mL)	–
CCc1cc(=O)[nH]c(-n2nc(C)cc2NC(=O)c2cccc(F)c2)n1	6.25 µM (≈ 2.13 µg/mL)	–	–	–
Cc1cc(NC(=O)c2ccc(C)c(C)c2)n(-c2nc(C)c(C)c(=O)[nH]2)n1	3.56 µM (≈ 1.25 µg/mL)	38.7 µM	1.06 µM (≈ 0.372 µg/mL)	–
CCc1c(C)nc(-n2nc(C)cc2NC(=O)CCc2ccc(OC)cc2)[nH]c1=O	6.32 µM (≈ 2.5 µg/mL)	129 µM	18 µM (≈ 7.11 µg/mL)	–
CO[C@H]1/C=C/O[C@@]2(C)Oc3c(C)c(O)c4c(O)c(c(/C=N/N5CCN(C)CC5)c(O)c4c3C2=O)NC(=O)/C(C)=C\C=C\[C@H](C)[C@H](O)[C@@H](C)[C@@H](O)[C@@H](C)[C@H](OC(C)=O)[C@@H]1C [RIFAMPIN]	–	–	–	Activity [5]: Toxic; Activity [6]: Toxic; Activity [13]: inactive; Activity [9]: Non-Toxic; Kd [14]: 93600 µM
CC(=O)N1N=C(c2c(O)n(-c3ccccc3C)c(=O)[nH]c2=O)CC1c1ccccc1 (centres undefined)	–	21 µM	> 50 µM	–
CCc1cc(=O)[nH]c(-n2nc(C)cc2NC(C)=O)n1	50 µM (≈ 13.1 µg/mL)	–	–	–
CCc1cc(=O)[nH]c(-n2nc(C)cc2Nc2cccc(C(F)(F)F)c2)n1	0.78 µM (≈ 0.283 µg/mL)	> 100 µM	–	Activity [5]: Non-Toxic; Activity [6]: Non-Toxic; Activity [7]: Active; Activity [8]: Non-Toxic; Activity [9]: Non-Toxic; Activity [10]: Non-Toxic; Kd [14]: 25 µM; Activity [11]: Active
Cc1cccc(C(=O)Nc2cc(C)nn2-c2nc3cc(Cl)ccc3c(=O)[nH]2)c1	3.18 µM (≈ 1.25 µg/mL)	–	–	–
Cc1cccc(Nc2cc(C)nn2-c2nc3ccccc3c(=O)[nH]2)c1	0.94 µM (≈ 0.311 µg/mL)	–	–	–
CCc1c(C)nc(-n2nc(C)cc2NC(=O)COc2cccc(C)c2)[nH]c1=O	5.98 µM (≈ 2.28 µg/mL)	41.2 µM	7.71 µM (≈ 2.94 µg/mL)	–
CCc1cc(=O)[nH]c(-n2nc(C)cc2N)n1	6.25 µM (≈ 1.37 µg/mL)	–	–	–
COc1ccc2c(=O)[nH]c(-n3nc(C)cc3NC(=O)c3cccc(C)c3)nc2c1	6.43 µM (≈ 2.5 µg/mL)	–	–	–
CCOc1ccc(CC(=O)Nc2cc(C)nn2-c2nc3c(c(=O)[nH]2)CCC3)cc1	18.5 µM (≈ 7.26 µg/mL)	116 µM	18.5 µM (≈ 7.26 µg/mL)	–
NNC(=O)c1ccncc1 [ISONIAZID]	0.78 µM (≈ 0.107 µg/mL)	> 100 µM	–	Activity [6]: Toxic; Activity [8]: Toxic; Activity [9]: Non-Toxic
Cc1cccc(C(=O)Nc2cc(C)nn2-c2nc3ccc(Cl)cc3c(=O)[nH]2)c1	1.59 µM (≈ 0.626 µg/mL)	–	–	–
